Read-outs that look alike come from different tables or passages of the source.
Legend:
[1] = tested on: HB3 strain of P. falciparum (chloroquine sensitive); experiment: In vitro antimalarial activity, 48-h [3H]-hypoxanthine incorporation assay, HB3 strain; format: cell-based; conditions: Plasmodium falciparum; chloroquine sensitive HB3 isolate, n=4
Protocol: (§1) Antimalarial activity. Two strains of P. falciparum were used in this study: (a) The K1 strain which is known to be CQ resistant and (b) the HB3 strain which is sensitive to all antimalarials. Parasites were maintained in continuous culture using the method of Jensen and Trager. (J. Parasitol., 1977, 63, 883-886) Cultures were grown in flasks containing human erythrocytes (2-5%) with parasitemia in the range of 1% to 10% suspended in RPMI 1640 medium supplemented with 25 mM HEPES and 32 mM NaHCO3, and 10% human serum (complete medium). Cultures were gassed with a mixture of 3% O2, 4% CO2 and 93% N2. Antimalarial activity was assessed with an adaption of the 48-h sensitivity assay of Desjardins et al. (Antimicrob. Agents. Chemother., 1979, 16, 710-718.) using [^3H]-hypoxanthine incorporation as an assessment of parasite growth. Stock drug solutions were prepared in 100% dimethylsulphoxide (DMSO) and diluted to the appropriate concentration using complete medium. […] Cultures were incubated for a further 24 h before they were harvested onto filter-mats, dried for 1 h at 55° C. and counted using a Wallac 1450 Microbeta Trilux Liquid scintillation and luminescence counter. IC50 values were calculated by interpolation of the probit transformation of the log dose—response curve. […]

[2] = tested on: K1 strain of P. falciparum (chloroquine resistant); experiment: In vitro antimalarial activity, 48-h [3H]-hypoxanthine incorporation assay, K1 strain; format: cell-based, Plasmodium falciparum
Protocol: Antimalarial activity. Two strains of P. falciparum were used in this study: (a) The K1 strain which is known to be CQ resistant and (b) the HB3 strain which is sensitive to all antimalarials. Parasites were maintained in continuous culture using the method of Jensen and Trager. (J. Parasitol., 1977, 63, 883-886) Cultures were grown in flasks containing human erythrocytes (2-5%) with parasitemia in the range of 1% to 10% suspended in RPMI 1640 medium supplemented with 25 mM HEPES and 32 mM NaHCO3, and 10% human serum (complete medium). Cultures were gassed with a mixture of 3% O2, 4% CO2 and 93% N2. Antimalarial activity was assessed with an adaption of the 48-h sensitivity assay of Desjardins et al. (Antimicrob. Agents. Chemother., 1979, 16, 710-718.) using [^3H]-hypoxanthine incorporation as an assessment of parasite growth. Stock drug solutions were prepared in 100% dimethylsulphoxide (DMSO) and diluted to the appropriate concentration using complete medium. Assays were performed in sterile 96-well microtitre plates, each plate contained 200—1 of parasite culture (2% parasitemia, 0.5% haematocrit) with or without 10—1 drug dilutions. Each drug was tested in triplicate and parasite growth compared to control wells (which consituted 100% parasite growth). After 24-h incubation at 37° C., 0.5_Ci hypoxanthine was added to each well. Cultures were incubated for a further 24 h before they were harvested onto filter-mats, dried for 1 h at 55° C. and counted using a Wallac 1450 Microbeta Trilux Liquid scintillation and luminescence counter. IC50 values were calculated by interpolation of the probit transformation of the log dose—response curve. In Vivo Testing Protocol Male, random Swiss albino mice weighing 18-22 g were inoculated intraperitoneally with 10^7 parasitised erythrocytes with P. yoelii NS strain. Animals were then dosed daily via two routes (intraparential or oral) for four consecutative days beginning on the day of infection. Compounds were dissolved or suspended in the vechile solution consisting of methanol, phosphate buffered saline and DMSO (2:5:3 v/v).

[3] = Biliary and urinary excretion and tissue distribution of radioactivity 5 h after i.v. [3H]AQ or [3H]ISQ; format: in vivo, Male Wistar rats; conditions: for % of dose accounted for (bile, tissues, plasma, urine): total recovery
Source text: Investigation of Biliary and Urinary Excretion of [^3H] AQ and [^3H] ISQ After Administration to Male Wistar Rats. […] The rats were carefully monitored throughout the procedure to ensure that anaesthesia was maintained. A small incision was made in the throat and the trachea was located, via blunt dissection of the surrounding connective tissue. A 1.57 mm (I.D.) polythene tube cannula was inserted and securely fastened. […] A syringe containing saline was attached to the jugular cannula to act as a seal preventing air bubbles from entering the vein. An incision was made along the midline of the abdomen. The common bile duct was located and allowed to dilate before a 0.58 mm (I.D.) cannula was inserted. Control bile was obtained. The penis was ligated, to allow urine to be collected during the experiment. […] DMSO replaced the saline in the jugular cannula to prevent the drug precipitating out of solution during dosing. A 500 μl Hamilton syringe was filled with either [^3H]AQ or [^3H]ISQ (54 μmol/kg, 25 μCi/kg) and connected to the cannula. The radiolabelled compounds were infused via the jugular vein over a period of 30 mins to prevent respiratory depression caused by DMSO. Bile fractions were collected at hourly intervals for 5 h from the start of dosing, All samples were weighed and there weight recorded. After 5 h any remaining urine was aspirated from the bladder and blood was collected via cardiac puncture with a heparinised needle into a heparinised tube. […] Tissues (brain, heart, kidney, liver, lung, spleen and skin) were removed from the animal, rinsed in saline before being placed in vials and weighed. All samples were stored at −80° C. until they were required for analysis. […] Samples were left in darkness overnight to prevent chemiluminescence. Radioactivity was then determined using a Packard 1500 Liquid Scintillation Analyser. Portions of each tissue (50-100 mg) and aliquots of red blood cells (50-60 mg) were taken in duplicate; tissue solubilizer (0.5 ml) was added to each sample and left overnight at 50° C. The samples were cooled to room temperature before being decolourised with hydrogen peroxide (200 μl) and left for 1 h. The mixture was then neutralised with glacial acetic acid (30 μl) and 12 ml of scintillation fluid was added. The mixture was mixed thoroughly and left overnight in the dark. The samples were assayed for radioactivity. (all volumes of chemicals to be added were doubled for solubulizing the red blood cells)

[4] = 24 hour metabolism study, distribution of radioactivity; format: in vivo, Male Wistar rats
Protocol: [^3H]AQ (54 μmol/kg) was administered i.p to male Wistar rats (200-300 g). Each animal was placed in a wire-bottom metabolism cage with access to food and water. Urine was collected over 24 h, the cage was rinsed with distilled water (10 ml) at the end of the collection period. […] All samples were stored at −80° C. until analysed. Previous ISQ data was obtained for comparison with AQ. […] Samples were left in darkness overnight to prevent chemiluminescence. Radioactivity was then determined using a Packard 1500 Liquid Scintillation Analyser. Portions of each tissue (50-100 mg) and aliquots of red blood cells (50-60 mg) were taken in duplicate; tissue solubilizer (0.5 ml) was added to each sample and left overnight at 50° C. The samples were cooled to room temperature before being decolourised with hydrogen peroxide (200 μl) and left for 1 h. The mixture was then neutralised with glacial acetic acid (30 μl) and 12 ml of scintillation fluid was added. The mixture was mixed thoroughly and left overnight in the dark. The samples were assayed for radioactivity. (all volumes of chemicals to be added were doubled for solubulizing the red blood cells)

[5] = Radioactivity in plasma and red blood cells during 5 h after dosing; format: in vivo, Male Wistar rats; conditions: for average plasma level, % of the dose: throughout the 5 h experiment
Protocol: The animal was anaesthetised and the jugular vein cannulated as described above. To allow blood samples to be taken regularly, the carotid artery was cannulated with 0.58 mm I.D. polythene tubing. The cannula was attached to a heparinised saline syringe to prevent blood escaping from the cannula and to prevent air bubbles from entering the blood stream. The animals were dosed as described above and the clock was started at the end of the dosing period. Blood samples (300 μl) were collected at 15 mins, 30 mins and hourly post-dosing. Heparinised saline was flushed through the cannula after every blood collection to prevent clotting within the tubing. The saline was allowed to drain out of the cannula prior to every collection point. After the fifth hour sample had been collected, all remaining blood within the rat was allowed to drain from the cannula into a heparinised tube. All samples were […] (4000 rpm for 5 min) immediately after collection and the pellet and supernatant were separated. The volume of the plasma was recorded. The tissues were also removed and weighed all samples were stored at -80° C. until analysed. The active components of the plasma were removed via extraction with ether for LC/MS analysis. […] Samples were left in darkness overnight to prevent chemiluminescence. Radioactivity was then determined using a Packard 1500 Liquid Scintillation Analyser. Portions of each tissue (50-100 mg) and aliquots of red blood cells (50-60 mg) were taken in duplicate; tissue solubilizer (0.5 ml) was added to each sample and left overnight at 50° C. The samples were cooled to room temperature before being decolourised with hydrogen peroxide (200 μl) and left for 1 h. The mixture was then neutralised with glacial acetic acid (30 μl) and 12 ml of scintillation fluid was added. The mixture was mixed thoroughly and left overnight in the dark. The samples were assayed for radioactivity. (all volumes of chemicals to be added were doubled for solubulizing the red blood cells)

[6] = LC/MS and radiochromatographic analysis of urinary, biliary and plasma metabolites; format: in vivo, Male Wistar rats; conditions: for biliary metabolite identified (main) / glutathione (GSH) conjugates or metabolites found: rat bile; for biliary metabolite identified (main): i.v.; for glutathione (GSH) conjugates or metabolites found: urine or blood; for main compound or metabolite in plasma: rat plasma ether extracts
Protocol: After the fifth hour sample had been collected, all remaining blood within the rat was allowed to drain from the cannula into a heparinised tube. All samples were centrifiged (4000 rpm for 5 min) immediately after collection and the pellet and supernatant were separated. The volume of the plasma was recorded. The tissues were also removed and weighed all samples were stored at −80° C. until analysed. The active components of the plasma were removed via extraction with ether for LC/MS analysis.
Analysis of Urinary, Binary and Plasma Metabolites of Male Wistar Rats Dosed with [3H]AQ or [^3H]ISQ.
Our samples were analysed using MassLynx software. Aliquots (50-100 μl) of bile, urine and plasma ether extracts, were eluted from a Zorbax SB-18 column with a slow acetonitrile gradient (10-50% over 30 mins) in ammonium acetate (5.0 mM, pH3.8) at 0.9 ml/min. Two Jasco PU-980 pumps were linked to a mixing module, allowing effluent to mix with scintillation fluid prior to reaching the Flo-One A250 _eta radioactive flow detector or allowing the effluent to be delivered to the Quattro II mass spectrometer. Nebulising and drying gas were delivered at a rate of 13 L/h and 300 L/h respectively. The temperature of the LC/MS interface was 70° C. and the capillary voltage was […]. The extent of fragmentation was modulated via altering the cone voltage.

[7] = tested on: P. bergheri; experiment: In vivo activity in the mouse model against P. bergheri; conditions: in words
[8] = tested on: P. yoelii NS strain; experiment: In vivo 4-day test, P. yoelii NS rodent malaria model; parameters: species or system P. yoelii (Swiss albino mice); conditions: oral administration, standard 4-day test, repeated twice
Protocol: as §1

[9] = Plasmodium falciparum, chloroquine resistant K1 isolate, n=4, read-out: IC50
[10] = Table 2, chloroquine resistant K1 Plasmodium falciparum, read-out: IC50
[11] = 5 h after i.v. 54 μmol/kg, mean±s.e.m.
[12] = male, Wistar, rat, in vivo, iv, 5 h
[13] = male, Wistar, rat, in vivo, 24 h

## CCN(CC)Cc1ccc(Nc2ccnc3cc(Cl)ccc23)cc1O [Isoquine, 4-N-(3′-hydroxy-4′-[N,N-diethylaminomethyl])anilino-7-chloroquinoline]
[1]
  IC50: 9 nM
[2]; [9]
  IC50: 6 nM
[2]; [10]
  IC50: 15.7 nM
[3]; [11]
  % of dose excreted into bile: 12.73%
  % of dose recovered in skin: 21.46%
  % of dose remaining in heart: 0.58%
  % of dose remaining in liver: 32.93%
  % of dose remaining in plasma: 0.13%
[3]; after 5 h
  increase in liver accumulation compared with AQ: approximately 10%
  % of dose accounted for (bile, tissues, plasma, urine): 87.17%
[3]; after 5 h, all tissues
  % of dose in tissues: 70.92%
[3]; over 5 h after i.v. 54 μmol/kg, mean±s.e.m.
  % of dose excreted into urine: 3.39%
[4]; after 24 h
  % of dose remaining in liver: 5.48%
  % of dose remaining in skin: 5.6%
[4]; after 24 h, 54 μmol/kg
  % of dose remaining in the tissues: 13.87%
[4]; after 24 h, tissues other than liver and skin
  % of dose in remaining tissues: 2.97%
[4]; difference between 5 h and 24 h
  % of dose removed from liver: 27.45%
[5]; over 5 h
  plasma levels relative to AQ: 3 fold
[5]
  average plasma level, % of the dose: 0.095%
[5]; throughout the experiment
  % of dose in red blood cells, constant level: 0.12%
[6]; in vivo, in words
  formation of toxic or reactive metabolites: does not form toxic metabolites
[6]; LC/MS
  biliary metabolite identified (main): isoquine aldehyde glucuronide metabolite
  glutathione (GSH) conjugates or metabolites found: complete lack of glutathione metabolites
  main compound or metabolite in plasma: parent compound
[6]; rat urine, LC/MS
  main compound excreted in urine: parent compound isoquine
[7]
  in vivo activity against P. bergheri: superior in vivo activity

## CCN(CC)Cc1cc(Nc2ccnc3cc(Cl)ccc23)ccc1O [amodiaquine, reference compound]
[1]
  IC50: 18 nM
[2]; [9]
  IC50: 25 nM
[8]; Plasmodium yoelii, in Mus musculus, po, 96 h, read-out: ED50
  ED50: 7.9 mg/kg
[8]
  ED50: 7.4 mg/kg
[3]; [11]
  % of dose recovered in skin: 22.12%
[3]; after 5 h
  % of dose accounted for (bile, tissues, plasma, urine): 78.56%
[3]; [12]
  % of dose remaining in heart: 0.34%
  % of dose remaining in liver: 20.82%
  % of dose remaining in plasma: 0.04%
[4]; male, Wistar, rat, in vivo
  % of dose removed from liver: 13.97%
[4]; [13]
  % of dose remaining in liver: 6.85%
  % of dose remaining in plasma: 0.02%
  % of dose remaining in skin: 7.18%
[5]; after 5 h
  % of dose in red blood cells after 5 h: 0.09%
[5]; start of 5 h period
  % of dose in red blood cells, initially: 0.12%
[5]
  average plasma level, % of the dose: approximately 0.034%
[6]; LC/MS
  biliary metabolite identified (main): a glutathione conjugate of AQ
  glutathione (GSH) conjugates or metabolites found: glutathione metabolites were observed
  main compound or metabolite in plasma: desethylAQ

## CC(C)NCc1ccc(Nc2ccnc3c2=CCC(Cl)C=3)cc1O (stereo not drawn) [ISQ5]
[2]; [10]
  IC50: 22.7 nM

## CCNCc1ccc(Nc2ccnc3c2=CCC(Cl)C=3)cc1O (stereo not drawn) [ISQ1]
[2]; [10]
  IC50: 16.5 nM

## CCN(CC)CCCC(C)Nc1ccnc2cc(Cl)ccc12 (stereo not drawn) [Chloroquine, chloroquine, reference compound]
[2]; Plasmodium falciparum, K1, read-out: IC50 nM
  IC50: 190 to 250 nM

## CN(C)Cc1ccc(Nc2ccnc3c2=CCC(Cl)C=3)cc1O (stereo not drawn) [ISQ2]
[2]; [10]
  IC50: 25.2 nM

## CCCN(CCC)Cc1ccc(Nc2ccnc3c2=CCC(Cl)C=3)cc1O (stereo not drawn) [ISQ3]
[2]; [10]
  IC50: 23.8 nM

## CCCCN(CCCC)Cc1ccc(Nc2ccnc3c2=CCC(Cl)C=3)cc1O (stereo not drawn) [ISQ4]
[2]; [10]
  IC50: 14.9 nM

— patent US7132431B2, “Anti-malarial compounds” (The University of Liverpool, priority 2001, dated 2006)
